The subject of one test is endometrial lesions. The test is described as follows: Syngeneic mouse endometriosis model (preventive). Format: in vivo. Conditions: 28 days. Here is the method:
The syngeneic induction of endometriosis in mice is a common animal model for testing the efficacy of substances for the treatment of endometriosis. Endometriosis is induced experimentally by transplantation of murine uterus fragments of a donor mouse of the same strain into the abdominal cavity of the recipient mouse. Female mice of the balb/c strain were used. The cycle of the mouse is determined by means of a vaginal smear. Donor animals which are in oestrus are used exclusively. The donor animals are sacrificed and the uterine horns are removed and subsequently cut open longitudinally. From the uteri, using a punch 2 mm bioptates are punched out, which are subsequently sewn into the recipient animal. The recipient animals are anaesthetised and subjected to a laparotomy. During the intervention, 6 uterus punchings of a donor mouse are sewn onto the parietal peritoneum of the recipient mouse. […] After 28 days, the animals are opened up in a final laparotomy and the lesion sizes are determined. The grown lesions are photographically recorded and the area is measured by means of AxioVision Software. […] In the s.c. approach (FIG. 1), the substance according to the invention (Example 4) was tested in 4 different dose schemes and the lesion size was assessed in comparison to the animals treated with vehicle. […]

In another test the target is human EP4 receptor (Homo sapiens (Human), UniProt P35408). Briefly: Test for antagonism of the human EP4 receptor signal (cAMP HTRF). It is filed as cell-based. The method, boiled down:
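Antagonism of PGE2-stimulated cAMP formation in hEP4-R cells with IBMX present. After lysis, cAMP measured by competitive TR-FRET (Eu cryptate anti-cAMP antibody vs cAMP-d2), 20 min at room temperature. Read-out is the 665/620 nm emission ratio; antagonism appears as restored FRET signal.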
For orientation: In TR-FRET formats the signal depends on donor and acceptor labels being close together.

Test [1] has as its system macrophages in the peritoneal fluid. Briefly: Flow cytometry of peritoneal lavage cells (macrophage activation). Format: in vivo. Conditions: mouse endometriosis model, p.o., vs vehicle control, p<0.001. Here is the method:
For the obtainment of the cells from the peritoneum, 3 ml of cold PBS (phosphate buffered saline) were injected into the peritoneum of the dead animal and removed again after gentle massage of the abdomen. The cells from this peritoneal lavage were spun down at 1400 rpm for 2 min and taken up again in 500 μl of PBS containing 2% FCS (fetal calf serum). 100 μl of this cell suspension were used for each stain with different antibody-fluorochrome conjugate mixes. The cells were spun down for this purpose in 96 hole plates again and resuspended in 50 μl of an antibody solution in the 1:300 diluted anti CD11b-Pacific Blue (eBioscience), 1:200 diluted anti F4/80-PE (eBioscience), 1:200 diluted anti Gr1-APC-Cy7 (BD Pharmigen), 1:400 diluted anti CD11c-PE-Cy7 (BD Pharmigen) and 1:400 diluted anti MHCII-FITC (BD Pharmigen) and stored on ice in the dark for 20 min. Subsequently, 150 μl of PBS containing 2% FCS were added and the cells were once again centrifuged down at 1400 rpm for 2 min. The 200 μl of supernatant were discarded and the cells were washed with 200 μl of PBS containing 2% FCS and once again centrifuged off.
Subsequently, they were taken up in 200 μl of PBS containing 2% FCS and 1:5000 diluted 5 mg/ml DAPI (Sigma) and the fluorescence intensity of the individual fluorochromes per cell was measured with a FACS Canto II flow cytometer. […]
In general terms: In flow cytometry, cells or beads pass a laser one at a time.

The mark [2] stands for this setting: cells expressing hEP4, PGE2 at EC80 (0.4 nM), cAMP TR-FRET, read-out: Antagonism hEP4 IC50.

Data on twelve compounds can be found in patent publication US9708311B2, “Benzimidazole derivatives as EP4 antagonists” (BAYER PHARMA AKTIENGESELLSCHAFT, priority 2012, dated 2017).

The IC50 is the point on the concentration scale where inhibition reaches its midpoint.

Structures are written as SMILES. Read-outs that look alike come from different tables or passages of the source.

Sequence of human EP4 receptor (P35408 whole entry): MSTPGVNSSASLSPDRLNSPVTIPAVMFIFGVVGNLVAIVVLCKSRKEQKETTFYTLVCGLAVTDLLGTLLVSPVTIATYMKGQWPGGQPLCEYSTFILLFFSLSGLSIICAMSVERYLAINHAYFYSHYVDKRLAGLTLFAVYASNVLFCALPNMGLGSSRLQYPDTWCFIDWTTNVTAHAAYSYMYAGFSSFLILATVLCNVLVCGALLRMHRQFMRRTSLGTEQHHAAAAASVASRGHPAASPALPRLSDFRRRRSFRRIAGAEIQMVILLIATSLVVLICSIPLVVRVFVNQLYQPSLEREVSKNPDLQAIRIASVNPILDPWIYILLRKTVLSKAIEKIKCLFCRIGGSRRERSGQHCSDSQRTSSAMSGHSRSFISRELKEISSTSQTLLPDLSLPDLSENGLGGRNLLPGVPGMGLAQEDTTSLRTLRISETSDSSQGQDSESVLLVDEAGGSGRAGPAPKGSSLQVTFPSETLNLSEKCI

With `CCn1c2ccccc2c2cc(-c3nc4cc(C(=O)O)ccc4n3CCOC)ccc21` [Example 4, 2-(9-Ethyl-9H-carbazol-3-yl)-1-(2-methoxyethyl)-1H-benzimidazole-5-carboxylic acid], in the test on endometrial lesions (p.o., vs control, p<0.01), the “reduction of the endometrial lesions, oral administration” value is reported as “significant reduction of the endometrial lesions”. Also, in the test on endometrial lesions (s.c., 0.4, 3, 10 and 50 mg/kg/day, vs vehicle), the “reduction of the endometrial lesions, subcutaneous administration” value was “significant reduction of the endometrial lesions”. Moreover, the IC50 at human EP4 receptor (antagonism test Example 3.2.1, read-out: IC50 value at the EP4 receptor (antagonism test)) was approximately 6 nM; on human EP4 receptor (setting [2]) it was 5.59 nM. In test [1], the “number of activated macrophages in the peritoneal fluid (FACS)” value is “highly significant reduced number of activated macrophages”.
In the case of `CCn1c2ccccc2c2cc(-c3nc4cc(C(=O)NS(=O)(=O)Cc5ncccc5C)ccc4n3CCOC)ccc21` [Example 68, 2-(9-Ethyl-9H-carbazol-3-yl)-1-(2-methoxyethyl)-N-{[(3-methylpyridin-2-yl)methyl]-sulphonyl}-1H-benzimidazole-5-carboxamide], on human EP4 receptor (setting [2]), the half-inhibitory concentration (IC50) is 36.3 nM.
Same read-out and setting: under `CCn1c2ccccc2c2cc(-c3nc4cc(C(=O)NS(=O)(=O)c5ccccc5C)ccc4n3CCOC)ccc21` [Example 53, 2-(9-Ethyl-9H-carbazol-3-yl)-1-(2-methoxyethyl)-N-[(2-methylphenyl)sulphonyl]-1H-benzimidazole-5-carboxamide] stands 35.3 nM; under `COCCn1c(-c2ccc3c(c2)c2ccccc2n3CC2CC2)nc2cc(C(=O)O)ccc21` [Example 36, 2-[9-(Cyclopropylmethyl)-9H-carbazol-3-yl]-1-(2-methoxyethyl)-1H-benzimidazole-5-carboxylic acid], 13.1 nM.
On the same count and under the same terms, with `CCn1c2ccccc2c2cc(-c3nc4cc(C(=O)NS(=O)(=O)c5ccc(Cl)cc5)ccc4n3CCOC)ccc21` [Example 49, N-[(4-Chlorophenyl)sulphonyl]-2-(9-ethyl-9H-carbazol-3-yl)-1-(2-methoxyethyl)-1H-benzimidazole-5-carboxamide] the figure was 61.5 nM; with `CCn1c2ccccc2c2cc(-c3nc4cc(C(=O)NS(=O)(=O)Cc5ccccc5OC(F)(F)F)ccc4n3CCOC)ccc21` [Example 65, 2-(9-Ethyl-9H-carbazol-3-yl)-1-(2-methoxyethyl)-N-{[2-(trifluoromethoxy)benzyl]-sulphonyl}-1H-benzimidazole-5-carboxamide], 133 nM; with `CCn1c2ccccc2c2cc(-c3nc4cc(C(=O)NC)ccc4n3C)ccc21` [Example 90, 2-(9-Ethyl-9H-carbazol-3-yl)-N,1-dimethyl-1H-benzimidazole-5-carboxamide], 2860 nM.
The same measure, in the same setting: with `CCn1c2ccccc2c2cc(-c3nc4cc(C#N)ccc4n3CCOC)ccc21` [Example 44, 2-(9-Ethyl-9H-carbazol-3-yl)-1-(2-methoxyethyl)-1H-benzimidazole-5-carbonitrile] the figure was 421 nM; with `CCn1c2ccccc2c2cc(-c3nc4c(Cl)c(C(=O)O)ccc4n3CC3CC3)ccc21` [Example 8, 4-Chloro-1-(cyclopropylmethyl)-2-(9-ethyl-9H-carbazol-3-yl)-1H-benzimidazole-5-carboxylic acid], 19.7 nM.
Take `CCn1c2ccccc2c2cc(-c3nc4cc(C(=O)NCC(F)(F)F)ccc4n3CCOC)ccc21` [Example 77, 2-(9-Ethyl-9H-carbazol-3-yl)-1-(2-methoxyethyl)-N-(2,2,2-trifluoroethyl)-1H-benzimidazole-5-carboxamide]: on human EP4 receptor (setting [2]), the IC50 worked out at 49.2 nM.
Same read-out and setting: with `CCn1c2ccccc2c2cc(-c3nc4cc(C(=O)NS(=O)(=O)c5cccc(C)c5)ccc4n3CCOC)ccc21` [Example 47, 2-(9-Ethyl-9H-carbazol-3-yl)-1-(2-methoxyethyl)-N-[(3-methylphenyl)sulphonyl]-1H-benzimidazole-5-carboxamide] the figure was 25.6 nM.
Same read-out and setting: under `CCn1c2ccccc2c2cc(-c3nc4cc(C(=O)NS(=O)(=O)c5ccc(C)cc5)ccc4n3CCN(C)C)ccc21` [Example 75, 1-[2-(Dimethylamino)ethyl]-2-(9-ethyl-9H-carbazol-3-yl)-N-[(4-methylphenyl)sulphonyl]-1H-benzimidazole-5-carboxamide] stands 21.4 nM.
